Source: patent US20260034094A1, “COMPOSITIONS AND METHODS FOR INDUCING FERROPTOSIS” (Kojin Therapeutics, Inc., priority 2022, published 2026)
Where “and” joins values, the source holds several entries; their conditions need not be identical. Identical values can stand only once. Like-named read-outs stand apart in the source and are kept apart here.

Tests used:
human recombinant GCL = human recombinant GCL (Homo sapiens (Human), UniProt P48506); experiment: GCL enzyme profiling assay (ADP-Glo luminescence); assay type: biochemical
Sequence of human recombinant GCL (P48506 whole entry): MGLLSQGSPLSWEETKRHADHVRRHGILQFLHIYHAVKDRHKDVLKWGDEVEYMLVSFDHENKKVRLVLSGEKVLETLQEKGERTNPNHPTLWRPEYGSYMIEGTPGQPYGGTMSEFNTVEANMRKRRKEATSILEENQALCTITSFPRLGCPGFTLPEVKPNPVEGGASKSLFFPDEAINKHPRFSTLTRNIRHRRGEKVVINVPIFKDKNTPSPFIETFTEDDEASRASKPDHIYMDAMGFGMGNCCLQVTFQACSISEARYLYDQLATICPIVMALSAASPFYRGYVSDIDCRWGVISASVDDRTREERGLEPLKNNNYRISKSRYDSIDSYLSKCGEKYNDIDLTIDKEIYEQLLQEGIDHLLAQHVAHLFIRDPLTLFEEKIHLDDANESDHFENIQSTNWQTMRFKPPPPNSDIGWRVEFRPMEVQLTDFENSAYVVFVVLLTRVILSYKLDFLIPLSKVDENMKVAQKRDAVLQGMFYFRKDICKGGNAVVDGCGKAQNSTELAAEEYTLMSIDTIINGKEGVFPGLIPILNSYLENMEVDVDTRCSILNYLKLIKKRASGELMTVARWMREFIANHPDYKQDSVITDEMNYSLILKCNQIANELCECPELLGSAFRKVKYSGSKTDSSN
Protocol: The GCL enzyme assay was run in 50 mM HEPES, pH 7.5, containing 150 mM NaCl, 30 mM MgCl2, 0.5 mM EDTA, 1 mM DTT, 0.1 mg/mL BSA, and 0.02% or in the present case 0.2% F-127 in a total assay volume of 10 μL or 10 mL. Compound in pure DMSO was stamped in assay plates (Greiner black 384-well) or appropriate containers using a D300e digital dispenser (TECAN) and the final DMSO concentration was normalized to 1%. A 5 mL, or in the present case, 5 μL mixture of human recombinant GCL (final concentration: 5 nM) and ATP (final concentration: 0.6 mM) was added and the solution was incubated at room temperature (22° C.) for 1 h. The GCL enzyme reaction was initiated by addition of a 5 μL mixture of mono g-glutamate or in the present example, monosodium glutamate (final concentration: 1 mM) and a-aminobutyrate or α-aminobutyrate (final concentration: 1.2 mM). The reaction was stopped after 1 h or in the present case, 2 h by addition of 5 mL, or in the present case, 5 μL ADP GLO Reagent (Promega). The resulting solution was incubated for 2 h at room temperature. This was then followed by addition of 5 mL, or in the present case, 5 μL ADP GLO Detection. After incubation at room temperature for 30 min, the plates were read on a plate reader (PheraStar) using a luminescence protocol to quantify the GCL enzyme activity from each reaction solution. The data was analyzed using a four-parameter logistic equation to calculate IC50.

RKN cells = experiment: RKN cell profiling assay (cell viability, CellTiter-Glo); assay type: cell-based
Protocol: RKN cells were suspended in assay medium (F-12 medium supplemented with 10% FBS and penicillin/streptomycin) and seeded at 1,000 cells per well (30 μL total volume) in opaque white 384-well plates (Corning). Cells were allowed to adhere for 24 h at 37° C. (95% humidity, 5% CO2) and then exposed to compounds disclosed herein for 72 h, or in the present case, 96 h. DMSO stock solutions of compounds were added to cells using a D300e Digital Dispenser (Tecan). The final DMSO concentration in each well was normalized to 0.5% (v/v) after compound treatment. Cell viability was measured using CellTiter-Glo (Promega). After incubation for 15 min at room temperature, luminescence was measured using a PHERAstar FSX microplate reader (BMG Labtech). Ferroptosis rescue experiments were performed as described previously using cells treated with ferrostatin-1 (fer-1, 1.5 μM) when seeding assay plates. Dose-response data were analyzed to determine EC50 values with GraphPad Prism 9 software using a four-parameter logistic equation or CDD Vault (Collaborative Drug Discovery) using the Levenberg-Marquardt algorithm.

[1] = human recombinant GCL 5 nM, 1 h preincubation with ATP, read-out: GCL IC50
[2] = 96 h, 96 h exposure, read-out: Cell Killing EC50
[3] = human recombinant GCL 5 nM, 1 h preincubation with ATP, read-out: GCL IC50 (mM), individual values in parentheses
[4] = human recombinant GCL, ADP-Glo, read-out: GCL IC50
[5] = cell viability, read-out: Cell Killing EC50

SMILES	IC50 (human recombinant GCL; [1])	IC50 (human recombinant GCL; [4])	EC50 (RKN cells; [2])	EC50 (RKN cells; [5])	further results
CCCC(C)OC(=O)[C@@H](N)CCS(=N)(=O)CCCC(F)(F)F (stereo partly shown) [Compound 82]	0.02 to 2 mM		< 1 mM		
N=S(=O)(CCc1ccncc1)CC[C@H](N)C(=O)O (stereo partly shown) [Compound 6]	> 2 mM and 0.02 to 2 mM		≥ 1 mM		IC50 (human recombinant GCL; [3]): 2.27 mM and > 1.62 mM
CCCC(C)(C)OC(=O)[C@@H](N)CCS(=N)(=O)CCCC(F)(F)F (stereo partly shown) [Compound 89]	> 2 mM		< 1 mM		
COC(CCS(=N)(=O)CC[C@H](N)C(=O)O)C(F)(F)F (stereo partly shown) [Compound 155]	≤ 0.02 mM		< 1 mM		
CC(C)(C)CCS(=N)(=O)CC[C@H](N)C(=O)NCc1ccccc1 (stereo partly shown) [Compound 122]	> 2 mM		< 1 mM		
N=S(=O)(CC[C@H](N)C(=O)O)CCC1(O)CCC1 (stereo partly shown) [Compound 153]	0.02 to 2 mM		< 1 mM		
CCCCOC(=O)[C@@H](N)CCS(=N)(=O)CCc1ccccc1Cl (stereo partly shown) [Compound 91]	0.02 to 2 mM		< 1 mM		
CC(C)(CO)CCS(=N)(=O)CC[C@H](N)C(=O)O (stereo partly shown) [Compound 184]	0.02 to 2 mM		< 1 mM		
N=S(=O)(CCc1cnoc1)CC[C@H](N)C(=O)O (stereo partly shown) [Compound 9]	0.02 to 2 mM		< 1 mM		
CC(C)(CCS(=N)(=O)CC[C@H](N)C(=O)O)c1cnoc1 (stereo partly shown) [Compound 63]	0.02 to 2 mM		≥ 1 mM		
COC(CC[S@@](=N)(=O)CC[C@H](N)C(=O)O)C(F)(F)F (stereo partly shown) [Compound 177]	> 2 mM				EC50 (RKN cells; 96 h exposure, read-out: Cell Killing EC50): ≥ 1 mM
N=S(=O)(CCc1ccccc1C(F)(F)F)CC[C@H](N)C(=O)O (stereo partly shown) [Compound 15]	≤ 0.02 mM		≥ 1 mM		EC50 (RKN cells; 96 h, 96 h exposure, read-out: Cell Killing EC50 (mM), individual values in parentheses): 1.2 mM; EC50 (RKN cells; 96 h exposure, read-out: Cell Killing EC50 (mM), individual values in parentheses): 0.97 mM
CC(C)(C)CCS(=N)(=O)CC[C@H](N)C(=O)OC1CCCCC1 (stereo partly shown) [Compound 97]	> 2 mM		< 1 mM		
N=S(=O)(CC[C@H](N)C(=O)O)CCC1(O)CC1 (stereo partly drawn) [Compound 135, (2S)-2-amino-4-(2-(1-hydroxycyclopropyl)ethylsulfonimidoyl)butanoic acid]	0.02 to 2 mM		< 1 mM		
CCCCOC(=O)[C@@H](N)CC[S@@](=N)(=O)CCCC(F)(F)F [Compound 90]	0.02 to 2 mM		< 1 mM		
COCCCS(=N)(=O)CC[C@H](N)C(=O)OC (stereo partly shown) [Compound 75]	> 2 mM and 0.02 to 2 mM		≥ 1 mM		IC50 (human recombinant GCL; [3]): 2.35 mM and 0.594 mM
CC(C)(C)CCS(=N)(=O)CC[C@H](N)C(=O)NC1CCOCC1 (stereo partly shown) [Compound 120]	> 2 mM		< 1 mM		
CC(C)(C)CCS(=N)(=O)CC[C@H](N)C(=O)NCc1cncs1 (stereo partly shown) [Compound 124]	> 2 mM		< 1 mM		
COc1ccc(CCS(=N)(=O)CC[C@H](N)C(=O)O)cc1 (stereo partly shown) [Compound 12]	0.02 to 2 mM		≥ 1 mM		

Further lines, with some results ahead:

IC50 (human recombinant GCL; [1])	IC50 (human recombinant GCL; [4])	SMILES	EC50 (RKN cells; [2])	EC50 (RKN cells; [5])	further results
	0.02 to 2 mM	N=S(=O)(CC[C@H](N)C(=O)O)CCC1(n2ncc(-c3cccnc3)n2)CCC1 (stereo partly shown) [Compound 419]		≥ 1 mM	
≤ 0.02 mM and 0.02 to 2 mM		CC(C)(CCS(=N)(=O)CC[C@H](N)C(=O)O)n1ncc(-c2ccccc2)n1 (stereo partly drawn) [Compound 208, (2S)-2-amino-4-(3-methyl-3-(4-phenyl-2H-1,2,3-triazol-2-yl)butylsulfonimidoyl)butanoic acid]	< 1 mM		IC50 (human recombinant GCL; [3]): 0.0204 mM and 0.02 mM
	≤ 0.02 mM	C[C@@](O)(CCS(=N)(=O)CC[C@H](N)C(=O)O)C(F)(F)F (single isomer, unassigned) [Compound 322]		< 1 mM	
	0.02 to 2 mM	C#CC(C)(C)CCS(=N)(=O)CC[C@H](N)C(=O)O (stereo partly shown) [Compound 299]		< 1 mM	
	≤ 0.02 mM	N=S(=O)(CC[C@H](N)C(=O)O)CCC(O)(c1ccc(-c2ccc(Cl)cc2Cl)cc1F)C(F)(F)F (stereo partly shown) [Compound 450]		< 1 mM	
	≤ 0.02 mM	N=S(=O)(CC[C@H](N)C(=O)O)CCC(O)(CC(F)(F)F)c1ccc(-c2ccc(Cl)cc2Cl)cc1 (stereo partly drawn) [Compound 494, (2S)-2-amino-4-(3-(2′, 4′-dichloro-[1, 1′-biphenyl]-4-yl)-5,5,5-trifluoro-3-hydroxypentylsulfonimidoyl) butanoic acid]		≥ 1 mM	
	0.02 to 2 mM	Cc1cnn(C2(CCS(=N)(=O)CC[C@H](N)C(=O)O)CCC2)n1 (stereo partly shown) [Compound 417]		< 1 mM	
	0.02 to 2 mM	Cc1ccn(C(CCS(=N)(=O)CC[C@H](N)C(=O)O)C(F)(F)F)n1 (stereo partly shown) [Compound 412]		≥ 1 mM	
	≤ 0.02 mM	N=S(=O)(CC[C@H](N)C(=O)O)CCC12CC(C1)C2 (stereo partly shown) [Compound 294]		< 1 mM	
	≤ 0.02 mM	N=S(=O)(CC[C@H](N)C(=O)O)CCC(O)(c1ccc(-c2ccc(Cl)cc2Cl)cc1)C(F)(F)F (stereo partly shown) [Compound 428]		< 1 mM	
	≤ 0.02 mM	N=S(=O)(CCC(c1ccc(-c2cc(F)ccc2Cl)cc1)C(F)(F)F)CC[C@H](N)C(=O)O (stereo partly shown) [Compound 238]		< 1 mM	
	0.02 to 2 mM	CCOC(=O)[C@@H](N)CC[S@@](=N)(=O)CC[C@@](C)(O)C(F)(F)F [Compound 487, ethyl (S)-2-amino-4-((R,3R)-4,4,4-trifluoro-3-hydroxy-3-methylbutylsulfonimidoyl)butanoate]		< 1 mM	
	0.02 to 2 mM	N[C@@H](CCS(=O)(=O)CCC(O)(c1cc2ccccc2cn1)C(F)(F)F)C(=O)O (stereo partly drawn) [Compound 332, (2S)-2-amino-4-((4,4,4-trifluoro-3-hydroxy-3-(isoquinolin-3-yl)butyl)sulfonyl)butanoic acid]		≥ 1 mM	
	0.02 to 2 mM	N[C@@H](CCSCCC(O)(c1ncc(-c2ccc(Cl)cc2Cl)cn1)C(F)(F)F)C(=O)O (stereo partly shown) [Compound 469]		≥ 1 mM	
	> 2 mM	C[C@](O)(CCS(=N)(=O)CC[C@H](N)C(=O)O)C(F)(F)F (single isomer, unassigned) [Compound 325]		≥ 1 mM	
	0.02 to 2 mM	N=S(=O)(CCC(n1nccn1)C(F)(F)F)CC[C@H](N)C(=O)O (stereo partly drawn) [Compound 404, (2S)-2-amino-4-[[4,4,4-trifluoro-3-(triazol-2-yl)butyl]sulfonimidoyl]butanoic acid]		< 1 mM	
	0.02 to 2 mM	N=S(=O)(CC[C@H](N)C(=O)O)CCC(O)(C(F)(F)F)C12CC(C1)C2 (stereo partly shown) [Compound 359]		≥ 1 mM	
	> 2 mM	CC(C)(C)OC(=O)[C@@H](N)CC[S@](=N)(=O)CC[C@H](O)C(F)(F)F [Compound 490]		≥ 1 mM	
	≤ 0.02 mM	N=[S@SP2](=O)(CCC(N)C(=O)O)CCC(c1ccc(-c2ccccc2)cc1)(C(F)(F)F)C(F)(F)F (stereo not shown) [compound 509]		≥ 1 mM	
	≤ 0.02 mM	CCCCc1ccc(C(CCS(=N)(=O)CC[C@H](N)C(=O)O)C(F)(F)F)cc1 (stereo partly shown) [Compound 224]		< 1 mM	
	0.02 to 2 mM	N=S(=O)(CC[C@H](N)C(=O)O)CCC(O)(c1ccnc(C(F)(F)F)c1)C(F)(F)F (stereo partly shown) [Compound 364]		≥ 1 mM	
	≤ 0.02 mM	N[C@@H](CCS(=O)(=O)CCC(O)(c1cc(-c2ccccc2)sn1)C(F)(F)F)C(=O)O (stereo partly shown) [Compound 377]		≥ 1 mM	
	≤ 0.02 mM	N=S(=O)(CC[C@H](N)C(=O)O)CCC(O)(c1cc2ccccc2cn1)C(F)(F)F (stereo partly drawn) [Compound 331, (2S)-2-amino-4-(4,4,4-trifluoro-3-hydroxy-3-(isoquinolin-3-yl)butylsulfonimidoyl)butanoic acid]		< 1 mM	
	≤ 0.02 mM	N=S(=O)(CC[C@H](N)C(=O)O)CCC(O)(c1ccc(Oc2ccccc2)cn1)C(F)(F)F (stereo partly shown) [Compound 372]		< 1 mM	
